This assay has as its system P388 leukemia ip, CD2F1 mice, survival T/C. Description: NCI In Vivo Anticancer Drug Screen. Data for tumor model P388 Leukemia (intraperitoneal) in CD2F1 (CDF1) mice. To be noted: endpoint: median survival time, higher = longer survival. Summed up:
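Mice carrying the transplanted tumor received test compound or vehicle. Survival was recorded in each group, and the value is the treated-group measurement divided by that of the vehicle-treated control group.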

Setting [1] is: dose: 50.0 mg/kg/injection, schedule: Q01DX005 (ip), vehicle: saline with Tween-80.
Where [2] appears, read: dose: 100.0 mg/kg/injection, schedule: Q01DX005 (ip), vehicle: saline with Tween-80.
[3] abbreviates: dose: 200.0 mg/kg/injection, schedule: Q01DX005 (ip), vehicle: saline with Tween-80.
The mark [4] stands for this setting: dose: 50.0 mg/kg/injection, schedule: Q01DX005 (ip), vehicle: saline.
The mark [5] stands for this setting: dose: 100.0 mg/kg/injection, schedule: Q01DX005 (ip), vehicle: saline.
The mark [6] stands for this setting: dose: 200.0 mg/kg/injection, schedule: Q01DX005 (ip), vehicle: saline.
The mark [7] stands for this setting: dose: 60.0 mg/kg/injection, schedule: Q01DX005 (ip), vehicle: Klucel (hydroxypropylcellulose) (HPC).
Setting [8] is: dose: 120.0 mg/kg/injection, schedule: Q01DX005 (ip), vehicle: Klucel (hydroxypropylcellulose) (HPC).
[9] abbreviates: dose: 240.0 mg/kg/injection, schedule: Q01DX005 (ip), vehicle: Klucel (hydroxypropylcellulose) (HPC).
Where [10] appears, read: dose: 50.0 mg/kg/injection, schedule: Q01DX009 (ip), vehicle: saline with Tween-80.
The mark [11] stands for this setting: dose: 100.0 mg/kg/injection, schedule: Q01DX009 (ip), vehicle: saline with Tween-80.
Where [12] appears, read: dose: 200.0 mg/kg/injection, schedule: Q01DX009 (ip), vehicle: saline with Tween-80.
[13] abbreviates: dose: 100.0 mg/kg/injection, schedule: Q01DX001 (ip), vehicle: saline with Tween-80.
Where [14] appears, read: dose: 200.0 mg/kg/injection, schedule: Q01DX001 (ip), vehicle: saline with Tween-80.
The mark [15] stands for this setting: dose: 400.0 mg/kg/injection, schedule: Q01DX001 (ip), vehicle: saline with Tween-80.

Where “and” joins values, the source holds several entries; their conditions need not be identical. Equal values may be shown once. Inconclusive results and toxic doses are left out.

In the case of `O=C1c2sccc2C2C1N2C(=O)C(F)(F)F` (stereo not given), the T/C by setting is: under setting [1], 95 % of control; under setting [2], 98 % of control; under setting [3], 104 % of control.
The matching figures for `CC(NCCCCCCNC(C)C(=O)O)C(=O)O` (stereo not given): 105 % of control, 100 % of control and 117 % of control.
As to `CN1C2CCC1CC(=NOS(=O)(=O)CC13CCC(CC1=O)C3)C2` (stereo not given), the T/C reads like this: under setting [4], 100 % of control; under setting [5], 103 % of control; under setting [6], 115 % of control.
`NC(=O)/C=C1\NC(=O)CS1`: the T/C reads like this: (dose: 100.0 mg/kg/injection, schedule: Q01DX009 (ip), vehicle: saline sonified) 95 % of control; (dose: 200.0 mg/kg/injection, schedule: Q01DX009 (ip), vehicle: saline sonified) 90 % of control; (dose: 400.0 mg/kg/injection, schedule: Q01DX009 (ip), vehicle: saline sonified) 95 % of control.
With `Nc1nc(Cc2ccccc2)cc(-c2cc(Cc3ccccc3)nc(N)n2)n1`, the T/C is, setting by setting: under setting [7], 90 % of control; under setting [8], 95 % of control; under setting [9], 97 % of control.
For the compound `CCOC(=O)C(Cc1ccc(O)c(C#N)c1)NC(C)=O` (stereo not given), the T/C under setting [1] is 97 % of control, the T/C under setting [2] was 97 % of control and the T/C under setting [3] is 95 % of control.
Take `CCCCCC(=O)O[C@H]1CC[C@@H]2[C@H]1[C@@H]1CC[C@H]3O[C@]31C2(C)C`: the T/C reads like this: under setting [7], 111 % of control; under setting [8], 111 % of control; under setting [9], 121 % of control.
As for `C/C(=N\Nc1ccc([N+](=O)[O-])cc1[N+](=O)[O-])C1CC1`, the T/C was 117 % of control (dose: 25.0 mg/kg/injection, schedule: Q01DX009 (ip), vehicle: saline with Tween-80); 106 % of control under setting [10]; 108 % of control under setting [11]; 109 % of control under setting [12].
`CCOC(=O)N(C)N(C)C(=O)OCC`: the T/C is 100 % of control under setting [4], 100 % of control under setting [5] and 100 % of control under setting [6].
For `CC(=O)NCCSc1nc(-c2ccccc2)c(-c2ccccc2)o1`, the T/C (dose: 50.0 mg/kg/injection, schedule: Q01DX009 (ip), vehicle: Klucel (hydroxypropylcellulose) (HPC)) was 95 % of control; the T/C (dose: 100.0 mg/kg/injection, schedule: Q01DX009 (ip), vehicle: Klucel (hydroxypropylcellulose) (HPC)) was 104 % of control; the T/C (dose: 200.0 mg/kg/injection, schedule: Q01DX009 (ip), vehicle: Klucel (hydroxypropylcellulose) (HPC)) is 101 % of control.
Regarding `CCCCCCN(CCCCCC)CC(O)c1cc2c(c3ccccc13)CCCC2` (stereo not given), the T/C runs as follows: under setting [1], 94 % of control; under setting [2], 103 % of control; under setting [3], 103 % of control.
Turning to `O=C1CCC([N+](=O)[O-])([N+](=O)[O-])CO1`, the T/C under setting [13] is 111 % of control, the T/C under setting [14] is 106 % of control and the T/C under setting [15] was 113 % of control.
`CC(O)CCc1nc2ccccc2[nH]1` (stereo not given): the T/C is 95 % of control under setting [1], 100 % of control under setting [2] and 95 % of control under setting [3].
For `CSc1ccc(SC)c2c1C(=O)c1c(SC)ccc(SC)c1C2=O`, the T/C was 93 % of control under setting [10] and 96 % of control under setting [11].
Regarding `O=S(=O)(Cc1ccc(Cl)cc1)Cc1ccc(Cl)cc1`, the T/C reads like this: (dose: 100.0 mg/kg/injection, schedule: Q04DX003 (ip), vehicle: saline sonified) 100 % of control; (dose: 200.0 mg/kg/injection, schedule: Q04DX003 (ip), vehicle: saline sonified) 100 % of control; (dose: 400.0 mg/kg/injection, schedule: Q04DX003 (ip), vehicle: saline sonified) 90 % of control.
`CN=C(N)N/N=C(\c1ccccc1)c1ccc(Br)cc1`: the T/C (dose: 3.12 mg/kg/injection, schedule: Q04DX002 (ip), vehicle: saline with Tween-80) is 101 % of control; the T/C (dose: 6.25 mg/kg/injection, schedule: Q04DX002 (ip), vehicle: saline with Tween-80) is 108 % of control and 96 % of control.
`[O-]/[N+](=C\c1c(Cl)cccc1Cl)CC1(O)CCCCC1`: the T/C reads like this: under setting [10], 96 % of control; under setting [11], 90 % of control; under setting [12], 99 % of control.
On to `COc1ccc(C(O)C2CCCN(c3ccccc3)S2(=O)=O)cc1` (stereo not given), for which the T/C runs as follows: under setting [13], 101 % of control; under setting [14], 94 % of control; under setting [15], 98 % of control.
Take `COc1cc(C)c(/C(=N/O)n2nnc(-c3ccccc3)n2)c(C)c1`: the T/C by setting is: (dose: 15.0 mg/kg/injection, schedule: Q01DX005 (ip), vehicle: saline with Tween-80) 98 % of control; (dose: 30.0 mg/kg/injection, schedule: Q01DX005 (ip), vehicle: saline with Tween-80) 100 % of control; (dose: 60.0 mg/kg/injection, schedule: Q01DX005 (ip), vehicle: saline with Tween-80) 100 % of control and 91 % of control.
For `CCOC(=O)C(CC)CO` (stereo not given), the T/C (dose: 50.0 mg/kg/injection, schedule: Q01DX009 (ip), vehicle: saline) was 101 % of control; the T/C (dose: 100.0 mg/kg/injection, schedule: Q01DX009 (ip), vehicle: saline) is 100 % of control; the T/C (dose: 200.0 mg/kg/injection, schedule: Q01DX009 (ip), vehicle: saline) was 101 % of control.
Regarding `Cc1ccc(C2OC3=C(Nc4ccc([N+](=O)[O-])cc4N3)C2=O)cc1` (stereo not given), the T/C is 90 % of control under setting [7], 93 % of control under setting [8] and 96 % of control under setting [9].
Take `CC1=C2C3OC(=O)C(C)C3CCC2(C)C=C(Cl)C1=O` (stereo not given): the T/C under setting [7] was 111 % of control, the T/C under setting [8] is 98 % of control and the T/C under setting [9] was 101 % of control.

Values taken from PubChem BioAssay AID330 (DTP/NCI, 2004).
